The values below come from patent US12679845B2, “Crystal form of triazolopyridine-substituted indazole compound and preparation method therefor” (SHENZHEN OPTIMUM BIOLOGICAL TECHNOLOGY CO., LTD, priority 2021, dated 2026).

Series [1] is described as follows: Hygroscopicity study by dynamic vapor sorption (DVS). The series is classed as physicochemical. The settings on record: 25° C.; for Hygroscopic weight gain (ΔW): 80% RH compared to 0% RH. As to the method:
• Instrument model: TA Discovery TGA 5500 thermal gravimetric analyzer • Test method: The sample (2 to 5 mg) is placed in a platinum pot and tested under the protection of 25 mL/min dry nitrogen, and the method is: heating from room temperature to 350° C. at a rate of 10° C./min. Dynamic Vapor Sorption (DVS) Method of the Present Disclosure • Instrument model: SMS (Surface Measurement Systems) dynamic vapor sorption analyzer • Test conditions: The sample (10 to 15 mg) is taken and placed in a DVS sample dish for testing.
The detailed DVS parameters are as follows: • Temperature: 25° C. • Equilibrium: dm/dt=0.002%/min (minimum: 10 min, maximum: 180 min) • Drying: drying for 120 min under 0% RH RH (%) Test Gradient: • 10% (0% RH to 90% RH, 90% RH to 0% RH) • 5% (90% RH to 95% RH, 95% RH to 90% RH) RH (%) • RH (%) test gradient range: 0% to 95%
SMS DVS Advantage dynamic vapor sorption analyzer
10 to 15 mg of the crystal form S of the compound of formula (I) was taken and placed in a DVS sample disk for testing.

Series [2] can be described thus: Solid stability test (XRPD) under high temperature, high humidity and strong light. The series is classed as physicochemical. An excerpt:
For samples placed under high temperature and high humidity conditions, the vial was sealed with aluminum foil punched with small holes to ensure that the samples could fully contact with the ambient air; for samples placed under strong light conditions, the vial was sealed with a threaded cap. The samples placed under different conditions were sampled and detected (XRPD) on day 5, day 10, and month 3, and the results were compared with the initial results on day 0.

Series [3] can be described thus: In vivo PK study in Lewis female rats. As to conditions: rat, po 0.3 mg/kg, plasma. The protocol:
The animals were weighed before administration, and the administration volume was calculated based on the body weight.
Approximately 0.2 mL of whole blood sample was collected at the specified time by jugular venipuncture (or other appropriate blood collection site), and the actual blood collection time was recorded in the experimental record. The acceptable error for the collection time point is ±1 minute within 1 hour after administration, and ±5% of the theoretical time for other time points. All blood samples were immediately transferred to labeled commercial centrifuge tubes containing K2-EDTA. After collection, the blood sample was centrifuged at 4° C., 3200 g for 10 minutes to aspirate the supernatant plasma, which was immediately placed in dry ice and then stored at −60° C. or lower for LC-MS/MS analysis.
The concentration of the test sample in plasma was determined by the LC-MS/MS bioanalytical method.

In series [4] the test system is MMTV transcriptional activity (GR). Kind of series: MMTV_GR transcriptional activation activity assay, luciferase reporter gene in HeLa cells. The series is classed as cell-based. The text has this: Experimental Example 2: In Vitro Assay of Compounds for Activation of MMTV Transcriptional Activity in Luciferase Reporter Gene Screening System
The mouse mammary tumor virus (MMTV) promoter contains specific binding sites that activate GR (GREs). To determine the activity of the compound, a reporter gene (luciferase) was inserted behind the MMTV promoter, and the structure was expressed in a stable manner in the genome of the HeLa cell line. The MMTV promoter was activated using the test compound to induce the luciferase expression, and its activity was detected by luminescence measurements.
The final DMSO experimental concentration was 0.1%.
MMTV_GR Transcriptional Activation Activity Assay
1) Cell inoculation: Fresh cells were inoculated into a 384-well white transparent bottom assay plate at 4×10^3 cells/30 μL/well and incubated in a 37° C., 5% CO2 incubator for 24 hours.
2) Compound preparation: The compound plate was configured before the start of the experiment. […]
4) 30 μL of Bright-Glo fluorescence assay reagent was transferred to the cell plate. […]
6) The fluorescence value was determined using an Envision plate reader. […]
The concentration curve of the test compound was plotted using the graphing software GraphPad Prism5, and the […] value was calculated.

As a reminder, the AUC is concentration integrated over time. A low value points to low exposure. The term Cmax denotes the highest concentration seen after dosing. As a reminder, the Tmax is the time from dosing to the highest level. What is called half-life is the time needed for the level to fall by half in the phase considered. A lower half-life goes with fast loss. The term EC50 denotes the concentration that produces a half-maximal response. For `CC(C)[C@H](NC(=O)C(C)(F)F)[C@H](Oc1ccc2c(cnn2-c2ccc3nncn3c2)c1)c1ccccc1` [listing 1 of 2 here], the Classification of hygroscopicity entry in series [1] (80% RH) was “slightly hygroscopic”. For the same compound, in series [1] (listed as crystal form Q of the compound of formula (I)), the “Hygroscopic weight gain (ΔW)” value is 0.21%. The “Crystal form (XRPD)” value in series [2] (Day 0, initial) is “Crystal form Q”; in series [2] (High humidity (room temperature/relative humidity: 92.5%, open), Day 5) it was “Crystal form Q”; in series [2] (High humidity (room temperature/relative humidity: 92.5%, open), Day 10), “Crystal form Q”; in series [2] (High humidity (room temperature/relative humidity: 92.5%, open), Month 3), “Crystal form Q”; in series [2] (High temperature (60° C., open), Day 5), “Crystal form Q”; in series [2] (High temperature (60° C., open), Day 10), “Crystal form Q”. Also, the “Crystal form (XRPD)” value was “Crystal form Q” in series [2] (High temperature (60° C., open), Month 3); “Crystal form Q” in series [2] (Strong light (5000 lx, sealed), Day 5); “Crystal form Q” in series [2] (Strong light (5000 lx, sealed), Day 10); “Crystal form Q” in series [2] (Strong light (5000 lx, sealed), Month 3). For the same compound, the AUC in series [3] stood at 3.15 µM·h. In series [3], the Cmax was 361 nM. Further, in series [3], the Tmax is 4.5 h. This compound also had a half-life in series [3] of 214 min. Also, the EC50 in series [4] (Homo sapiens, 20 to 24 h, read-out: TA (MMTV transcriptional activation activity) EC50) was 7.72 nM. Besides, the “TA (MMTV transcriptional activation activity) Effect” value in series [4] (positive control 1000 nM Dexamethasone) stood at 63.86%.
As to `CC(C)[C@H](NC(=O)C(C)(F)F)[C@H](Oc1ccc2c(cnn2-c2ccc3nncn3c2)c1)c1ccccc1` [listing 2 of 2 here], the “Hygroscopic weight gain (ΔW)” value in series [1] came out at 0.6%.
